{"source": "patent US11957682B2", "about": "“Compounds and methods for regulating, limiting, or inhibiting AVIL expression” (University of Virginia Patent Foundation, priority 2017, dated 2024)", "key": {"glioblastoma cells (U87)": {"test_system": "glioblastoma cells (U87)", "assay": "IC50 for inhibiting cell growth in glioblastoma cells (U87)", "format": "cell-based, human", "conditions": "inhibition of cell growth", "protocol": "(§1) Cell Culture. The rhabdomyosarcoma cell lines RH30, RH18, and RD were cultured in RPMI-1640 medium with 10% FBS. RH18 was a gift from Dr. P. J. Houghton. Glioblastoma cell line U87 cells were cultured in Minimum Essential Medium Eagle (MEM), supplemented with 1 mM sodium pyruvate, 1% nonessential amino acids, 0.15% sodium bicarbonate, and 10% fetal bovine serum (FBS); T98G cells were cultured in MEM with 10% FBS; A172 cells were cultured in Dulbecco's modified Eagle's medium (DMEM) with 4.5 g/L glucose, and supplemented with 10% FBS; U251 cells were cultured in Roswell Park Memorial Institute medium with 5% FBS. Immortalized human astrocytes (a kind gift from Dr. Russ Pieper, University of California San Francisco) were grown in DMEM/F12 with 4.5 g/L of glucose, supplemented with 10% FBS. All cells were grown at 37° C. in 5% CO2-[…]. All cell lines unless specified were originally obtained from ATCC. They were not further authenticated.\n(§2) In this example, samples of glioblastoma cells (U87) and astrocyte cells (non-cancer control) were exposed various disclosed compounds to determine the effectiveness of the compounds for inhibiting cell growth."}, "[1]": {"test_system": "astrocyte cells (non-cancer control)", "assay": "IC50 for inhibiting cell growth in astrocyte cells (non-cancer control)", "format": "cell-based, human", "conditions": "inhibition of cell growth", "protocol": "as §1, §2"}, "[2]": {"test_system": "GBM lines (U87, A172, U251, and T98G)", "assay": "Cellular assays using GBM cell lines and immortalized astrocytes", "format": "cell-based, human", "conditions": "four GBM lines (U87, A172, U251, T98G) versus astrocytes", "protocol": "as §1\nTo investigate whether AVIL is a viable drug target, a platform of small-molecule microarray was utilized (Bradner et al., 2006a; Bradner et al., 2006b) in order to identify compounds that interact with the AVIL protein. 50,000 small molecules were screened with recombinant advillin protein, including commercially available compounds, products of diversity-oriented synthesis, and known bioactive compounds. From these compounds, 82 advillin-interacting compounds were identified (FIG. 7A). […] Pubchem ID for the three compounds are as follows: Compound A is CID 56750508, Compound B is CID 56890068, and Compound C is CID 70768068."}, "[3]": {"target": "T1, advillin recombinant protein (AVIL) (Homo sapiens, UniProt O75366)", "T1 construct": "MBP (N, cleaved yes); made in house; host or cells: E. coli BL21 (DE3)", "T1 sequence (O75366 1-819)": "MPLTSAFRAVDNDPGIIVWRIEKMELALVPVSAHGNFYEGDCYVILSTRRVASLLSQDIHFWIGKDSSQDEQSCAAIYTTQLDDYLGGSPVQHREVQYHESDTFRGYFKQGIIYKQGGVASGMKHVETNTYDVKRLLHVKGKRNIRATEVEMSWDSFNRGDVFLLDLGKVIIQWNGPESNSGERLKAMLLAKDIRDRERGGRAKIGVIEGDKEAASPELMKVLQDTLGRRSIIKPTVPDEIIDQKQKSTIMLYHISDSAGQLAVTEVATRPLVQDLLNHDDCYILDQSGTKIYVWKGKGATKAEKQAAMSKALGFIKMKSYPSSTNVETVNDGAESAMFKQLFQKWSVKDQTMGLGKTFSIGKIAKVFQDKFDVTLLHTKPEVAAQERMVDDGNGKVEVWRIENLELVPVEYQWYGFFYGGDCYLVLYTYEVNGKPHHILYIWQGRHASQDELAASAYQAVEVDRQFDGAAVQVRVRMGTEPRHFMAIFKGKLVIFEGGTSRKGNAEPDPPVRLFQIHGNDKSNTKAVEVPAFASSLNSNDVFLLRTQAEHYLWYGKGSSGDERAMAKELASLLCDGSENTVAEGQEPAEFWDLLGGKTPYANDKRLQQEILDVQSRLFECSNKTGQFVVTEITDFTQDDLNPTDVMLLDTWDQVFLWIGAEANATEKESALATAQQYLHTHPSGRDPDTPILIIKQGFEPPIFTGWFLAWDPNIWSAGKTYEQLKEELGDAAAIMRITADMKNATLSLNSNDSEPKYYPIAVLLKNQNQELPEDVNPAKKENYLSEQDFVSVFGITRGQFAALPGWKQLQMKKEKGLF", "assay": "Thermal shift assay", "format": "binding", "conditions": "for binding with advillin recombinant protein: thermal shift assay", "protocol": "Protein purification. The sequence for human Advillin (AVIL) was cloned into the pMAL-c4x vector. The corresponding plasmid was transformed into BL21 (DE3) cells. Expression of MBP-AVIL was induced at OD600≈0.7 by the addition of 1 mM IPTG, and continued for 18 hrs at 23° C. Harvested cells were subsequently resuspended in 20 mM Tris-HCl pH 7.4, 200 mM NaCl, 1 mM EDTA, 1 mM DTT (Wash Buffer), supplemented with Complete Protease Inhibitor Cocktail (Roche), lysed in Emulsiflex C3 (AVESTIN) and cell debris was removed by centrifugation. MBP-AVIL was immobilized on Amylose Resin (New England BioLabs) followed by extensive washing (>50 column volumes) with Wash Buffer. Protein was eluted with Wash Buffer supplemented with 10 mM Maltose. After overnight incubation with TEV protease, MBP-tag was removed by size exclusion on HiLoad 16/600 Superdex 200 pg columns, previously equilibrated to 20 mM HEPES, pH 7.4, 50 mM NaCl, 1 mM DTT (Protein Buffer). Recombinant AVIL was flash-frozen in liquid nitrogen and stored in −80° C.\nThermal shift assay. SYPRO Orange (ThermoFisher Scientific) was added to 0.5 mg/ml AVIL (in Protein Buffer) in a 1:4500 ratio. 2.5 uL increasing concentrations of candidate compounds were added to 22.5 μL of AVIL/SYPRO Orange mixture on a 96 well plate (10% final concentration of DMSO). Protein unfolding was measured in a CFX96 qPCR (Bio-Rad) instrument with 0.2° C./15 sec steps, over the range of 20-90° C."}, "[4]": {"test_system": "MSC mesenchymal stem cells (non-cancer control)", "assay": "Cell survival / crystal violet staining of MSC cells", "format": "cell-based", "conditions": "20 μM", "source_text": "(§3) RH30 and RD are rhabdomyosarcoma cells. MSC is mesenchymal stem cells, as a non-cancer control."}, "[5]": {"test_system": "RH30 rhabdomyosarcoma cells", "assay": "Cell survival / crystal violet staining of RH30 cells", "format": "cell-based", "conditions": "20 μM", "protocol": "as §1, §3"}, "U87 cells": {"test_system": "U87 cells", "assay": "Microarray analysis of U87 cells treated with compounds (gene ontology, GSEA)", "format": "cell-based, human", "conditions": "gene set downregulated by siAVIL", "protocol": "(§4) The effect of the three compounds on LIN28B expression was tested. […] To test whether the compounds can trigger transcriptome response similar to siAVIL, a microarray analysis of the U87 cells treated with these compounds was performed. Strikingly, cells treated with all three compounds had similar transcriptome profiles when compared to that of the siAVIL transfected cells, by both gene ontology and Gene Set Enrichment analyses (example in FIGS. 7F and 7G)."}, "[6]": {"test_system": "RD rhabdomyosarcoma cells", "assay": "Cell survival / crystal violet staining of RD cells", "format": "cell-based", "conditions": "20 μM", "protocol": "as §1, §3"}, "U87 xenograft": {"test_system": "U87 xenograft", "assay": "U87 xenograft model, intra-tumor injection", "format": "in vivo, NIH-III Nude mice", "protocol": "Astrocytes stably expressing AVIL or an empty vector were injected subcutaneously into the flanks of NIH-III Nude mice. Around 2 million cells were used per injection. The animals were monitored twice a week. For drug treatment, 1.5 million U87 cells were injected subcutaneously into the flanks of NIH-III Nude mice. Compound 56750508 was dissolved in 50% DMSO, 15% ethanol, and 35% water. After tumors became visible (around 2 weeks), 50 ul drug solution or solvent was injected intra-tumorly. Three injections were performed with two day intervals.\nas §4"}, "[7]": {"conditions": "three intra-tumor injections with two day intervals, versus solvent control, at harvest"}}}
{"molecule": "Nc1cc(N2CCCC(CCCc3ccccc3)(C(=O)O)C2)nc(N)n1", "note": "(stereo not shown) [K]", "values": [{"measurement": "IC50", "setting": "glioblastoma cells (U87); Homo sapiens", "value": 39, "unit": "µM"}, {"measurement": "IC50", "setting": "[1]; Homo sapiens, Astrocyte", "value": 34, "unit": "µM"}]}
{"molecule": "CN(Cc1ccc(Oc2ccccc2)cc1)C(=O)C1C[C@@H](O)CN1", "note": "(stereo partly shown) [Compound C]", "values": [{"measurement": "IC50 values in GBM lines compared to astrocytes", "setting": "[2]", "value": "significantly different IC50 values"}, {"measurement": "binding with advillin recombinant protein", "setting": "[3]", "value": "confirmed binding"}]}
{"molecule": "CCCC1(CO)CCCN(c2cc(N3CCN(C)CC3)nc(N)n2)C1", "note": "(stereo not shown) [L]", "values": [{"measurement": "IC50", "setting": "glioblastoma cells (U87); Homo sapiens", "value": "> 80", "unit": "µM"}, {"measurement": "IC50", "setting": "[1]; Homo sapiens, Astrocyte", "value": "> 80", "unit": "µM"}]}
{"molecule": "Nc1cc(N2CCCC(CO)(CCCc3ccccc3)C2)ncn1", "note": "(stereo not shown) [J]", "values": [{"measurement": "IC50", "setting": "glioblastoma cells (U87); Homo sapiens", "value": 20, "unit": "µM"}, {"measurement": "IC50", "setting": "[1]; Homo sapiens, Astrocyte", "value": "> 80", "unit": "µM"}]}
{"molecule": "Nc1nccc(N2CCCC(CO)(CCCc3ccccc3)C2)n1", "note": "(stereo not shown) [Compound A]", "values": [{"measurement": "effect on MSC cells", "setting": "[4]", "value": "no significant effect"}, {"measurement": "effect on RH30 cells", "setting": "[5]", "value": "most if not all of the RH30 and RD cells were wiped out"}, {"measurement": "GSEA enrichment score", "setting": "U87 cells", "value": "highest GSEA enrichment score"}, {"measurement": "effect on RD cells", "setting": "[6]", "value": "most if not all of the RH30 and RD cells were wiped out"}, {"measurement": "IC50", "setting": "glioblastoma cells (U87); Homo sapiens", "value": 9, "unit": "µM"}, {"measurement": "IC50", "setting": "[1]; Homo sapiens, Astrocyte", "value": 55, "unit": "µM"}, {"measurement": "side effect in the animals", "setting": "U87 xenograft; three injections", "value": "did not observe any obvious side effect"}, {"measurement": "tumor volume", "setting": "U87 xenograft; [7]", "value": "significantly smaller"}, {"measurement": "tumor weight", "setting": "U87 xenograft; [7]", "value": "significantly smaller"}, {"measurement": "IC50 values in GBM lines compared to astrocytes", "setting": "[2]", "value": "significantly different IC50 values"}, {"measurement": "melting temperature (Tm) shift of AVIL protein", "setting": "[3]; increasing concentrations of compound", "value": "dose-dependent melting temperature (Tm) shift"}, {"measurement": "binding with advillin recombinant protein", "setting": "[3]", "value": "confirmed binding"}]}
{"molecule": "Nc1nccc(N2CCCC(CCc3ccccc3)C2)n1", "note": "(stereo not shown) [E]", "values": [{"measurement": "IC50", "setting": "glioblastoma cells (U87); Homo sapiens", "value": 1, "unit": "µM"}, {"measurement": "IC50", "setting": "[1]; Homo sapiens, Astrocyte", "value": 30, "unit": "µM"}]}
{"molecule": "Cc1nccc(N2CCCC(CO)(CCCc3ccccc3)C2)n1", "note": "(stereo not shown) [Compound I]", "values": [{"measurement": "IC50", "setting": "glioblastoma cells (U87); Homo sapiens", "value": 19, "unit": "µM"}, {"measurement": "IC50", "setting": "[1]; Homo sapiens, Astrocyte", "value": 80, "unit": "µM"}]}
{"molecule": "Nc1cc(N2CCCC(CO)(CCCc3ccccc3)C2)nc(N)n1", "note": "(stereo not shown) [G]", "values": [{"measurement": "IC50", "setting": "glioblastoma cells (U87); Homo sapiens", "value": 10, "unit": "µM"}, {"measurement": "IC50", "setting": "[1]; Homo sapiens, Astrocyte", "value": "> 80", "unit": "µM"}]}
{"molecule": "Nc1cc(N2CCCC(CO)(CCCc3ccccc3)C2)nc(N)n1", "note": "(stereo not shown) [H]", "values": [{"measurement": "IC50", "setting": "glioblastoma cells (U87)", "value": 8, "unit": "µM"}, {"measurement": "IC50", "setting": "[1]", "value": 59, "unit": "µM"}]}
{"molecule": "Nc1cc(N2CCC(CO)(CCCc3ccccc3)CC2)nc(N)n1", "note": "[D]", "values": [{"measurement": "IC50", "setting": "glioblastoma cells (U87); Homo sapiens", "value": 2.5, "unit": "µM"}, {"measurement": "IC50", "setting": "[1]; Homo sapiens, Astrocyte", "value": 51, "unit": "µM"}]}
{"molecule": "Nc1nccc(N2CCC(CO)(CCCc3ccccc3)CC2)n1", "note": "[F]", "values": [{"measurement": "IC50", "setting": "glioblastoma cells (U87); Homo sapiens", "value": 4, "unit": "µM"}, {"measurement": "IC50", "setting": "[1]; Homo sapiens, Astrocyte", "value": 28, "unit": "µM"}]}
{"molecule": "c1ccc(CCC2CCN(CC3[C@H]4CNC[C@@H]34)CC2)cc1", "note": "(stereo partly shown) [Compound B]", "values": [{"measurement": "IC50 values in GBM lines compared to astrocytes", "setting": "[2]", "value": "significantly different IC50 values"}, {"measurement": "binding with advillin recombinant protein", "setting": "[3]", "value": "confirmed binding"}]}
